# Laboratory results taken from PubChem BioAssay AID342 (DTP/NCI, 2004).
# Tested on: Swiss mice, Sarcoma 180 sc, mean tumor weight T/C
# Assay: NCI In Vivo Anticancer Drug Screen. Data for tumor model Sarcoma 180 (subcutaneous) in Swiss mice
# Details: endpoint: mean tumor weight, higher = larger tumour
# In short: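 Readout is the ratio of treated-group measurement to vehicle-control measurement (T/C), based on survival or tumor size in mice carrying transplanted tumors.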
structure (smiles),measurement,setting,value
CN(C)c1nc(N(C)C)nc(N(C)C)n1,T/C,"dose: 7.34 mg/kg/injection, schedule: Q#A X014 (ip), vehicle: carboxymethylcellulose (CMC)",86 % of control
same,T/C,"dose: 14.67 mg/kg/injection, schedule: Q#A X014 (ip), vehicle: carboxymethylcellulose (CMC)",90 % of control
same,T/C,"dose: 22.5 mg/kg/injection, schedule: Q01DX007 (ip), vehicle: carboxymethylcellulose (CMC)",117 % of control
same,T/C,"dose: 23.45 mg/kg/injection, schedule: Q#A X014 (ip), vehicle: other",91 % of control
same,T/C,"dose: 25.0 mg/kg/injection, schedule: Q01DX007 (ip), vehicle: methylcellulose (MC)",64 % of control
same,T/C,"dose: 25.0 mg/kg/injection, schedule: Q01DX007 (oral), vehicle: carboxymethylcellulose (CMC)",58 % of control
same,T/C,"dose: 25.0 mg/kg/injection, schedule: Q01DX007 (oral), vehicle: methylcellulose (MC)",102 % of control
same,T/C,"dose: 29.35 mg/kg/injection, schedule: Q#A X014 (ip), vehicle: carboxymethylcellulose (CMC)",75 % of control
same,T/C,"dose: 29.35 mg/kg/injection, schedule: Q#A X014 (ip), vehicle: other",80 % of control
same,T/C,"dose: 31.25 mg/kg/injection, schedule: Q#A X014 (ip), vehicle: carboxymethylcellulose (CMC)",53 % of control
same,T/C,"dose: 39.1 mg/kg/injection, schedule: Q#A X014 (ip), vehicle: other",83 % of control
same,T/C,"dose: 45.0 mg/kg/injection, schedule: Q01DX007 (ip), vehicle: carboxymethylcellulose (CMC)",88 % of control
same,T/C,"dose: 46.9 mg/kg/injection, schedule: Q01DX007 (ip), vehicle: other",49 % of control
same,T/C,"dose: 50.0 mg/kg/injection, schedule: Q01DX007 (ip), vehicle: methylcellulose (MC)",61 % of control
same,T/C,"dose: 50.0 mg/kg/injection, schedule: Q01DX007 (oral), vehicle: carboxymethylcellulose (CMC)",87 % of control
same,T/C,"dose: 50.0 mg/kg/injection, schedule: Q01DX007 (oral), vehicle: methylcellulose (MC)",116 % of control
same,T/C,"dose: 58.7 mg/kg/injection, schedule: Q01DX007 (ip), vehicle: other",51 % of control
same,T/C,"dose: 58.7 mg/kg/injection, schedule: Q#A X014 (ip), vehicle: other",77 % of control
same,T/C,"dose: 62.5 mg/kg/injection, schedule: Q#A X014 (ip), vehicle: carboxymethylcellulose (CMC)",26 % of control
same,T/C,"dose: 78.2 mg/kg/injection, schedule: Q01DX007 (ip), vehicle: other",54 % of control
same,T/C,"dose: 90.0 mg/kg/injection, schedule: Q01DX007 (ip), vehicle: carboxymethylcellulose (CMC)",77 % of control
same,T/C,"dose: 100.0 mg/kg/injection, schedule: Q01DX007 (ip), vehicle: methylcellulose (MC)",75 % of control
same,T/C,"dose: 100.0 mg/kg/injection, schedule: Q01DX007 (oral), vehicle: carboxymethylcellulose (CMC)",67 % of control
same,T/C,"dose: 100.0 mg/kg/injection, schedule: Q01DX007 (oral), vehicle: methylcellulose (MC)",108 % of control
same,T/C,"dose: 117.4 mg/kg/injection, schedule: Q01DX007 (ip), vehicle: other",40 % of control
same,T/C,"dose: 200.0 mg/kg/injection, schedule: Q01DX007 (ip), vehicle: methylcellulose (MC)",94 % of control
same,T/C,"dose: 200.0 mg/kg/injection, schedule: Q01DX007 (oral), vehicle: carboxymethylcellulose (CMC)",57 % of control
same,T/C,"dose: 200.0 mg/kg/injection, schedule: Q01DX007 (oral), vehicle: methylcellulose (MC)",114 % of control
COc1ccc2c(c1)CC[C@@H]1[C@@H]2CC[C@@]2(C)[C@H]1CC[C@]2(C)O,T/C,"dose: 0.5 mg/kg/injection, schedule: Q#A X014 (sc), vehicle: steriod suspending solution",80 % of control
same,T/C,"dose: 5.0 mg/kg/injection, schedule: Q#A X014 (sc), vehicle: steriod suspending solution",113 % of control
same,T/C,"dose: 50.0 mg/kg/injection, schedule: Q#A X014 (sc), vehicle: steriod suspending solution",68 % of control
NNc1nnc(NN)c2ccccc12,T/C,"dose: 31.25 mg/kg/injection, schedule: Q01DX007 (ip), vehicle: saline",167 % of control
same,T/C,"dose: 62.5 mg/kg/injection, schedule: Q01DX007 (ip), vehicle: saline",176 % of control
same,T/C,"dose: 125.0 mg/kg/injection, schedule: Q01DX007 (ip), vehicle: saline",119 % of control
CC(CN)CCC(C)(O)C(N)=O (configuration not stated),T/C,"dose: 83.0 mg/kg/injection, schedule: Q#A X014 (ip), vehicle: methylcellulose (MC)",63 % of control
same,T/C,"dose: 125.0 mg/kg/injection, schedule: Q#A X014 (ip), vehicle: methylcellulose (MC)",49 % of control
same,T/C,"dose: 187.5 mg/kg/injection, schedule: Q#A X014 (ip), vehicle: methylcellulose (MC)",47 % of control
